Consider 3 molecules from patent US4336253A, “Cephalosporin antibiotics” (Eli Lilly and Company, priority 1981, dated 1982).

Molecules are shown by their SMILES.

The nature of the series: physchem.
The mark [1] stands for this setting: 66% dmf, first titratable group.
Where [2] appears, read: 66% dmf, second titratable group.

By pKa is commonly meant the pH at which an ionisable group is half protonated. High values mean a weaker acid or stronger base, low ones a stronger acid or weaker base. As for `O=C(Cc1cccnc1)NO` [N-hydroxy 3-pyridineacetamide], the pKa amounted to 3.68 under setting [1]; 11.5 under setting [2]; 4.6 (water, first titratable group); 9.09 (water, second titratable group).
For `CN(O)C(=O)c1ccncc1` [N-hydroxy-N-methyl 4-pyridinecarboxamide], the pKa was found to be 3.55 (water, first titratable group) and 7.9 (water, second titratable group).
In the case of `O=C(Cc1ccccn1)NO` [N-hydroxy-2-pyridineacetamide], the pKa reads like this: under setting [1], ~3.4; under setting [2], 11.7; (water, first titratable group) 4.05; (water, second titratable group) 9.2.
